Measurements as given in paper PMC6145935, “Asymmetric assembly of high-value α-functionalized organic acids using a biocatalytic chiral-group-resetting process” (Nature Communications, 2018).

Biological target: T1, CgTD (Corynebacterium glutamicum, UniProt Q04513)
T1 construct: gene ilvA; recombinant, expressed in E. coli BL21(DE3) from pETDuet-1 (pETduet-CgTD)
T1 sequence (Q04513 1-436): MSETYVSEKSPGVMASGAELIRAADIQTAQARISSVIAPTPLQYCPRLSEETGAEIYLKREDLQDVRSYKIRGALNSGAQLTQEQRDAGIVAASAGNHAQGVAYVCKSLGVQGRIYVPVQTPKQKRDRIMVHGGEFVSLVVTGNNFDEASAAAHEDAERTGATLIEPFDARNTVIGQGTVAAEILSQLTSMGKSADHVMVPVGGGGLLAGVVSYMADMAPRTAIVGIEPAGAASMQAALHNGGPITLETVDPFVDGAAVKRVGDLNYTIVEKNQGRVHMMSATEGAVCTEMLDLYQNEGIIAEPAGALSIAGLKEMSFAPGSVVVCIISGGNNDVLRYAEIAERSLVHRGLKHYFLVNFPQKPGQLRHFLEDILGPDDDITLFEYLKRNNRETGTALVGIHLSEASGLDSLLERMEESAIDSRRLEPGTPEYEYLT
Experiment: TD activity screen of enzyme expressed in E. coli
Settings: PLP enzyme; deamination to alpha-keto acid 4a

SMILES: N[C@H](C(=O)O)[C@@H](O)c1ccccc1 [erythro-3a, erythro-ʟ-phenylserine]
- TD activity screen of enzyme expressed in E. coli: only TD from Corynebacterium glutamicum (CgTD) showed activities toward both configurations

SMILES: N[C@H](C(=O)O)C(O)c1ccccc1 (stereo partly drawn) [threo-3a, threo-ʟ-phenylserine]
- TD activity screen of enzyme expressed in E. coli: the TD activities toward both threo- and erythro-ʟ-phenylserine (threo/erythro-3a) were tested
